According to US20080261898A1, “COMPOSITION AND METHOD FOR CANCER TREATMENT AND PREVENTION” (priority 2007, published 2008):

Assays:
[1] = system: CDK1; test: CDK1 expression in xenograft tumor samples, immunoblotting; format: in vivo, mouse; details: Treatment 4
Method: (§1) 8-12 week old athymic nude mice (Jackson Laboratories, Bar Harbor, Me., US) were randomly assigned to Control (n=10) and Treatment (n=10) groups. Tumor xenografts were generated by injecting DU-145 cells (4×10^6) subcutaneously into the mice (Day 1). 1 mg/kg body weight of AC620 or PBS (Control) was administrated to the mice by subcutaneous injection starting at the time of tumor implantation (Day 1) and the mice were treated twice a week. Tumors were measured periodically. At Day 30, the mice were sacrificed. Half of each tumor was processed for immunohistochemical analysis and the other half was frozen for subsequent protein and RNA analysis.
(§2) Xenograft mouse model was generated and AC620 or PBS (Control) was administrated to the transplanted mice for 30 days as described above. After the mice were sacrificed, immunoblotting analysis of the tumor samples was performed using CDK1 and CDK2 antibodies as described above.

[2] = system: CDK2; test: CDK2 expression in DU-145 cells, immunoblotting; format: cell-based, human; details: 72 hr
Method: (§3) After 72 hr treatment, cell lysates were collected and immunoblotting was performed. The membranes were probed with primary antibodies against CDK2 (Transduction Laboratory, San Jose, Calif.) and actin (Santa Cruz Biotechnology, Santa Cruz, Calif.) followed by horseradish peroxidase (HRP)-conjugated secondary antibodies and visualized using the Enhanced Chemi-Luminescence detection system (ECL) and ECL films.

[3] = system: VEGF; test: VEGF expression in DU-145 cells, immunoblotting; format: cell-based, human
Method: AC620 was dissolved in ethanol and then added to cultured DU-145 cells, a hormone-refractory, metastatic prostate cancer cell line. The concentrations tested were 0, 0.1, 0.5, 1 and 4 μM, and the cells were grown for 72 hr. Cells treated with ethanol for the same time period were used as Control. DU-145 cells were maintained in RPMI 1640 medium (PAA Laboratories, Pashing, Austria) supplemented with 10% fetal calf serum (FCS) (Sigma, St. Louis, Mo.). After 72 hr treatment, cell Tysates were collected and immunoblotting was performed. The membranes were probed with primary antibodies against VEGF and actin (Santa Cruz Biotechnology, Santa Cruz, Calif.) followed by horseradish peroxidase (HRP)-conjugated secondary antibodies (Amersham Life Science, Alesbury, U.K.) and visualized using the Enhanced Chemi-Luminescence detection system (ECL) and ECL films (Amersham Pharmacia Biotech).

[4] = system: CDK2; test: CDK2 expression in xenograft tumor samples, immunoblotting; format: in vivo, mouse
Method: as §1, §2

[5] = system: LNCaP cells; test: BrdU based cell proliferation assay, LNCaP cells; design: species or system human
Method: (§4) AC620 was incubated with hormone-refractory prostate cancer cell line DU-145 cells and hormone-responsive prostate cancer cell line LNCaP cells at various concentrations (0, 0.1, 0.5, 1, 5 μM) for 72 hr. LNCaP cells were maintained in RPMI 1640 medium (PAA Laboratories, Pashing, Austria) supplemented with 10% fetal calf serum (FCS) (Sigma, St. Louis, Mo.). The effect of AC620 on proliferation of DU-145 cells and LNCaP cells was determined by using a non-radioactive BrdU based cell proliferation assay kit (Roche, Switzerland) according to manufacturer's protocol. BrdU incorporation into the cellular DNA was determined by measuring the absorbance at 450 nm and 690 nm on an ELISA plate reader.
as §4, with “0 (Control) and” for “various concentrations (0, 0.1, 0.5, 1,”, “μM” for “μM)”, “for 24, 48 and” for “for”, “hr.” for “hr. LNCaP cells were maintained in RPMI 1640 medium (PAA Laboratories, Pashing, Austria) supplemented with 10% fetal calf serum (FCS) (Sigma, St. Louis, Mo.).”

[6] = system: VEGF Receptor I (VEGF R1); test: VEGF R1 expression in DU-145 cells, immunoblotting; format: cell-based, human; details: 0.1, 0.5, 1 μM, 72 hr
Method: as §3, with “DU-145 cells were treated with AC620 at various concentrations (0, 0.1, 0.5, 1 μM) for 72 hr. After” for “After”, “VEGF Receptor I (VEGF R1) and VEGF Receptor II (VEGF R2)” for “CDK2 (Transduction Laboratory, San Jose, Calif.)”

[7] = system: DU-145 cells; test: Cell cycle profile by flow cytometry, DU-145 cells; format: cell-based, human; details: 72 hr
Method: AC620 was incubated with DU-145 cells at various concentrations ([…]) for 72 hr. The cells were then collected and their cell cycle profiles were measured by flow cytometry analysis.

[8] = system: Bcl-2; test: Bcl-2 expression in xenograft tumor samples, immunoblotting; format: in vivo, mouse
Method: as §1
Xenograft mouse model was generated and AC620 or PBS (Control) was administrated to the transplanted mice for 30 days as described above. After the mice were sacrificed, immunoblotting analysis of the tumor samples was performed using Bcl-2 and p21 antibodies as described above.

[9] = system: DU-145 tumor xenografts; test: Tumor growth in DU-145 xenograft mouse model; format: in vivo; details: for decrease of tumor size: athymic nude mice, DU-145 xenograft
Method: as §1

[10] = system: HT-29 cells; test: BrdU based cell proliferation assay, HT-29 cells; details: 72 hr
Method: as §4
AC620 was incubated with metastatic colorectal cancer cell line HT-29 cells at various concentrations (0, 0.1, 0.5, 1, 4 μM) for 72 hr. The effect of AC620 on proliferation of HT-29 cells was determined by using a non-radioactive, BrdU based cell proliferation assay as described above.

CC1OC(OCC2OC(Oc3c(-c4ccc(O)c(O)c4)oc4cc(O)c(O)cc4c3=O)C(O)C(O)C2O)C(O)C(O)C1O (stereo not shown) [AC620]
reduction of CDK1 expression in tumor samples [1]: approximately 80%
estimated decrease of CDK2 expression ([2]; 0.1 μm): ~0%
estimated decrease of CDK2 expression ([2]; 0.5 μm): ~10%
estimated decrease of CDK2 expression ([2]; 1 μm): ~20%
estimated decrease of CDK2 expression ([2]; 4 μm): ~60%
reduced VEGF expression ([3]; 0.1 μm AC620, 72 hr): approximately 40%
reduced VEGF expression ([3]; 0.5 μm AC620, 72 hr): approximately 60%
reduced VEGF expression ([3]; 1 μm AC620, 72 hr): approximately 80%
reduced VEGF expression ([3]; 4 μm AC620, 72 hr): over 95%
reduction of CDK2 expression in tumor samples ([4]; Treatment 1): approximately 80%
reduction of CDK2 expression in tumor samples ([4]; Treatments 2, 3 and 4): > 95%
decrease in cell proliferation of LNCaP cells ([5]; 5 μM, after 24 hr): 16%
decrease in cell proliferation of LNCaP cells ([5]; 5 μM, after 48 hr): 20%
decrease in cell proliferation of LNCaP cells ([5]; 5 μM, after 72 hr (time study)): 65%
decrease in cell proliferation of LNCaP cells ([5]; 0.1 μm, 72 hr): 23%
decrease in cell proliferation of LNCaP cells ([5]; 0.5 μm, 72 hr): 20%
decrease in cell proliferation of LNCaP cells ([5]; 1 μm, 72 hr): 42%
decrease in cell proliferation of LNCaP cells ([5]; 5 μm, 72 hr (dose study)): 65%
change in VEGF R1 expression [6]: no change
G1 phase cell cycle arrest ([7]; 0.1 μm): 0%
G1 phase cell cycle arrest ([7]; 0.5 μm): 4%
G1 phase cell cycle arrest ([7]; 1 μm): 18%
G1 phase cell cycle arrest ([7]; 5 μm): 32%
estimated decrease of Bcl-2 expression in tumor samples ([8]; Treatment 1): ~80%
estimated decrease of Bcl-2 expression in tumor samples ([8]; Treatment 2): > 95%
estimated decrease of Bcl-2 expression in tumor samples ([8]; Treatment 3): ~90%
estimated decrease of Bcl-2 expression in tumor samples ([8]; Treatment 4): > 95%
tumor growth compared to Control ([9]; 1 mg/kg subcutaneous twice a week, P<0.03): significantly reduced
decrease of tumor size ([9]; Day 19, 1 mg/kg subcutaneous twice a week): 47%
decrease of tumor size ([9]; Day 22, 1 mg/kg subcutaneous twice a week): 37%
decrease of tumor size ([9]; Day 25, 1 mg/kg subcutaneous twice a week): 24%
decrease of tumor size ([9]; Day 29, 1 mg/kg subcutaneous twice a week): 13%
morphology of tumor samples compared to Control group ([9]; immunohistochemical specimens, 30 days treatment): more differentiated morphology
cell proliferation decreased, HT-29 cells ([10]; 0.1 μm): 0%
cell proliferation decreased, HT-29 cells ([10]; 0.5 μm): 5%
cell proliferation decreased, HT-29 cells ([10]; 1 μm): 46%
cell proliferation decreased, HT-29 cells ([10]; 4 μm): 62%
